{"source": "patent US5807535A", "about": "“Metal complexes of hydroxyaryl containing aminocarboxylic acid chelating agents” (Australian Nuclear Science & Technology Organisation, priority 1992, dated 1998)", "key": {"[1]": {"assay": "Serum stability of Copper-67 complexes", "assay_type": "in vitro ADME", "description": "The serum stability was determined for selected derivatives and typical procedure is as follows.\nThe ligand (1) was labelled with Cu-67 at a ligand:metal ratio of 4:1."}, "[2]": {"assay": "Complexation of (1) with 166Dy and 166Ho", "assay_type": "physicochemical", "conditions": "166Dy/166Ho, within 40 mins at RT", "description": "Radiolabelling with of (1) with ^166 Dy and ^166 Ho and the serum stability of the complex formed has been investigated. A typical procedure involves dissolving (1) (2.6 10^-4 M) in 1.0 M NaOH (150 μl) and then adding saline (669 μl). Then equal volume of ligand mixture and the ^166 Dy/^166 Ho in 0.2 M NaAc (pH to 4.5) are mixed. The complexation is monitored by ITLC-SG."}, "[3]": {"assay": "Serum stability of 166Dy/166Ho complex of (1)", "assay_type": "in vitro ADME", "conditions": "human serum, 37° C.", "description": "The radiolabelling (1) is then incubated in human serum at 37° C. At various time intervals the aliquots are separated and monitored for UV absorbance and radioactivity. The data illustrated in FIG. 31 show the complex is stable for >46 hrs."}, "[4]": {"assay": "Biodistribution of Copper-67 complex of (5)", "assay_type": "in vivo, Balb/c mice", "conditions": "for biodistribution L. Int. / biodistribution S. Int. / biodistribution blood / biodistribution bone / biodistribution brain / biodistribution heart / biodistribution kidney / biodistribution liver / biodistribution lung / biodistribution muscle / biodistribution pancreas / biodistribution skin / biodistribution spleen / biodistribution stomach / biodistribution tail / biodistribution urine: 67Cu, mice", "description": "A typical procedure involved the dissolving Cu-67 20 μl of original stock in an acetate buffer (0.2 M; pH 4.5) to a total volume of 500 μl. To this solution was added 500 μl of the ligand (20 mg/ml) solution in acetate buffer. The mixture was then left to react at 37° C. for 20 minutes. ITLC confirmed the labelling was greater than >95%.\nThe biodistribution of the copper-67 complex of ligand (5) was evaluated in balb/c mice (5 animals per time point) at 1, 3, 5, 10, 30 minute time intervals."}, "[5]": {"assay": "Effect of pH on radiolabelling ligand (5) with 64/67Cu", "assay_type": "physicochemical", "description": "Radiolabelling with ^64/67 Cu was investigated with ligand (5) over a range of pHs (see Table B). Conditions employed are similar to that reported above for where the ^64/67 Cu in appropriate buffer was added directly to a buffered solution of ligand (5). Rate and percent of complexation was monitored over time by ITLC-SG. Mobile phase employed was methanol:water:ammonia (9:1: trace amounts). The copper complex moves with the solvent front while the free copper is retained at the origin."}, "[6]": {"conditions": "Cu-67, over the 30 minute period"}}, "data": [{"smiles": "O=C(O)CN(CCN(CC(=O)O)CC(=O)Nc1ccccc1O)CC(=O)Nc1ccccc1O", "note": "[Compound 1]", "values": [{"measurement": "further loss in serum", "setting": "[1]; Cu-67, after 24 hours", "result": "no further loss"}, {"measurement": "degraded at 4 h", "setting": "[1]; serum, Cu-67, initial 4 hours, read-out: loss in serum", "result": 4, "unit": "%"}, {"measurement": "complexation", "setting": "[2]", "result": "> 99", "unit": "%"}, {"measurement": "serum stability (complex is stable for)", "setting": "[3]", "result": "> 46", "unit": "h"}]}, {"smiles": "Nc1ccc(O)c(NC(=O)CN(CCN(CC(=O)O)CC(=O)Nc2cc(N)ccc2O)CC(=O)O)c1", "note": "[Compound 5]", "values": [{"measurement": "biodistribution L. Int.", "setting": "[4]; 1 min", "result": 0.35, "unit": "% Injected dose"}, {"measurement": "biodistribution S. Int.", "setting": "[4]; 1 min", "result": 0.50, "unit": "% Injected dose"}, {"measurement": "biodistribution blood", "setting": "[4]; 1 min", "result": 5.86, "unit": "% Injected dose"}, {"measurement": "biodistribution bone", "setting": "[4]; 1 min", "result": 5.46, "unit": "% Injected dose"}, {"measurement": "biodistribution brain", "setting": "[4]; 1 min", "result": 0.23, "unit": "% Injected dose"}, {"measurement": "biodistribution heart", "setting": "[4]; 1 min", "result": 0.27, "unit": "% Injected dose"}, {"measurement": "biodistribution kidney", "setting": "[4]; 1 min", "result": 8.35, "unit": "% Injected dose"}, {"measurement": "biodistribution liver", "setting": "[4]; 1 min", "result": 5.71, "unit": "% Injected dose"}, {"measurement": "biodistribution lung", "setting": "[4]; 1 min", "result": 0.85, "unit": "% Injected dose"}, {"measurement": "biodistribution muscle", "setting": "[4]; 1 min", "result": 13.69, "unit": "% Injected dose"}, {"measurement": "biodistribution pancreas", "setting": "[4]; 1 min", "result": 0.20, "unit": "% Injected dose"}, {"measurement": "biodistribution skin", "setting": "[4]; 1 min", "result": 9.61, "unit": "% Injected dose"}, {"measurement": "biodistribution spleen", "setting": "[4]; 1 min", "result": 0.18, "unit": "% Injected dose"}, {"measurement": "biodistribution stomach", "setting": "[4]; 1 min", "result": 0.52, "unit": "% Injected dose"}, {"measurement": "biodistribution tail", "setting": "[4]; 1 min", "result": 8.27, "unit": "% Injected dose"}, {"measurement": "biodistribution urine", "setting": "[4]; 1 min", "result": 0.35, "unit": "% Injected dose"}, {"measurement": "biodistribution L. Int.", "setting": "[4]; 3 min", "result": 0.75, "unit": "% Injected dose"}, {"measurement": "biodistribution S. Int.", "setting": "[4]; 3 min", "result": 1.10, "unit": "% Injected dose"}, {"measurement": "biodistribution blood", "setting": "[4]; 3 min", "result": 4.76, "unit": "% Injected dose"}, {"measurement": "biodistribution bone", "setting": "[4]; 3 min", "result": 3.35, "unit": "% Injected dose"}, {"measurement": "biodistribution brain", "setting": "[4]; 3 min", "result": 0.22, "unit": "% Injected dose"}, {"measurement": "biodistribution heart", "setting": "[4]; 3 min", "result": 0.28, "unit": "% Injected dose"}, {"measurement": "biodistribution kidney", "setting": "[4]; 3 min", "result": 5.65, "unit": "% Injected dose"}, {"measurement": "biodistribution liver", "setting": "[4]; 3 min", "result": 8.48, "unit": "% Injected dose"}, {"measurement": "biodistribution lung", "setting": "[4]; 3 min", "result": 1.20, "unit": "% Injected dose"}, {"measurement": "biodistribution muscle", "setting": "[4]; 3 min", "result": 18.00, "unit": "% Injected dose"}, {"measurement": "biodistribution pancreas", "setting": "[4]; 3 min", "result": 0.11, "unit": "% Injected dose"}, {"measurement": "biodistribution skin", "setting": "[4]; 3 min", "result": 19.21, "unit": "% Injected dose"}, {"measurement": "biodistribution spleen", "setting": "[4]; 3 min", "result": 0.19, "unit": "% Injected dose"}, {"measurement": "biodistribution stomach", "setting": "[4]; 3 min", "result": 0.93, "unit": "% Injected dose"}, {"measurement": "biodistribution tail", "setting": "[4]; 3 min", "result": 5.19, "unit": "% Injected dose"}, {"measurement": "biodistribution urine", "setting": "[4]; 3 min", "result": 1.98, "unit": "% Injected dose"}, {"measurement": "biodistribution L. Int.", "setting": "[4]; 5 min", "result": 0.54, "unit": "% Injected dose"}, {"measurement": "biodistribution S. Int.", "setting": "[4]; 5 min", "result": 1.08, "unit": "% Injected dose"}, {"measurement": "biodistribution blood", "setting": "[4]; 5 min", "result": 4.05, "unit": "% Injected dose"}, {"measurement": "biodistribution bone", "setting": "[4]; 5 min", "result": 2.74, "unit": "% Injected dose"}, {"measurement": "biodistribution brain", "setting": "[4]; 5 min", "result": 0.23, "unit": "% Injected dose"}, {"measurement": "biodistribution heart", "setting": "[4]; 5 min", "result": 0.19, "unit": "% Injected dose"}, {"measurement": "biodistribution kidney", "setting": "[4]; 5 min", "result": 4.99, "unit": "% Injected dose"}, {"measurement": "biodistribution liver", "setting": "[4]; 5 min", "result": 9.04, "unit": "% Injected dose"}, {"measurement": "biodistribution lung", "setting": "[4]; 5 min", "result": 1.10, "unit": "% Injected dose"}, {"measurement": "biodistribution muscle", "setting": "[4]; 5 min", "result": 11.95, "unit": "% Injected dose"}, {"measurement": "biodistribution pancreas", "setting": "[4]; 5 min", "result": 0.12, "unit": "% Injected dose"}, {"measurement": "biodistribution skin", "setting": "[4]; 5 min", "result": 16.23, "unit": "% Injected dose"}, {"measurement": "biodistribution spleen", "setting": "[4]; 5 min", "result": 0.16, "unit": "% Injected dose"}, {"measurement": "biodistribution stomach", "setting": "[4]; 5 min", "result": 0.87, "unit": "% Injected dose"}, {"measurement": "biodistribution tail", "setting": "[4]; 5 min", "result": 5.36, "unit": "% Injected dose"}, {"measurement": "biodistribution urine", "setting": "[4]; 5 min", "result": 3.72, "unit": "% Injected dose"}, {"measurement": "biodistribution L. Int.", "setting": "[4]; 10 min", "result": 0.79, "unit": "% Injected dose"}, {"measurement": "biodistribution S. Int.", "setting": "[4]; 10 min", "result": 0.90, "unit": "% Injected dose"}, {"measurement": "biodistribution blood", "setting": "[4]; 10 min", "result": 2.33, "unit": "% Injected dose"}, {"measurement": "biodistribution brain", "setting": "[4]; 10 min", "result": 0.19, "unit": "% Injected dose"}, {"measurement": "biodistribution heart", "setting": "[4]; 10 min", "result": 0.18, "unit": "% Injected dose"}, {"measurement": "biodistribution kidney", "setting": "[4]; 10 min", "result": 4.48, "unit": "% Injected dose"}, {"measurement": "biodistribution liver", "setting": "[4]; 10 min", "result": 11.79, "unit": "% Injected dose"}, {"measurement": "biodistribution lung", "setting": "[4]; 10 min", "result": 1.20, "unit": "% Injected dose"}, {"measurement": "biodistribution muscle", "setting": "[4]; 10 min", "result": 8.38, "unit": "% Injected dose"}, {"measurement": "biodistribution pancreas", "setting": "[4]; 10 min", "result": 0.34, "unit": "% Injected dose"}, {"measurement": "biodistribution skin", "setting": "[4]; 10 min", "result": 16.46, "unit": "% Injected dose"}, {"measurement": "biodistribution spleen", "setting": "[4]; 10 min", "result": 0.16, "unit": "% Injected dose"}, {"measurement": "biodistribution stomach", "setting": "[4]; 10 min", "result": 0.80, "unit": "% Injected dose"}, {"measurement": "biodistribution tail", "setting": "[4]; 10 min", "result": 3.45, "unit": "% Injected dose"}, {"measurement": "biodistribution urine", "setting": "[4]; 10 min", "result": 4.71, "unit": "% Injected dose"}, {"measurement": "biodistribution L. Int.", "setting": "[4]; 30 min", "result": 0.31, "unit": "% Injected dose"}, {"measurement": "biodistribution S. Int.", "setting": "[4]; 30 min", "result": 0.71, "unit": "% Injected dose"}, {"measurement": "biodistribution blood", "setting": "[4]; 30 min", "result": 2.12, "unit": "% Injected dose"}, {"measurement": "biodistribution bone", "setting": "[4]; 30 min", "result": 2.05, "unit": "% Injected dose"}, {"measurement": "biodistribution brain", "setting": "[4]; 30 min", "result": 0.54, "unit": "% Injected dose"}, {"measurement": "biodistribution heart", "setting": "[4]; 30 min", "result": 0.20, "unit": "% Injected dose"}, {"measurement": "biodistribution kidney", "setting": "[4]; 30 min", "result": 3.38, "unit": "% Injected dose"}, {"measurement": "biodistribution liver", "setting": "[4]; 30 min", "result": 17.10, "unit": "% Injected dose"}, {"measurement": "biodistribution lung", "setting": "[4]; 30 min", "result": 1.29, "unit": "% Injected dose"}, {"measurement": "biodistribution muscle", "setting": "[4]; 30 min", "result": 7.45, "unit": "% Injected dose"}, {"measurement": "biodistribution pancreas", "setting": "[4]; 30 min", "result": 0.34, "unit": "% Injected dose"}, {"measurement": "biodistribution skin", "setting": "[4]; 30 min", "result": 14.14, "unit": "% Injected dose"}, {"measurement": "biodistribution spleen", "setting": "[4]; 30 min", "result": 0.19, "unit": "% Injected dose"}, {"measurement": "biodistribution stomach", "setting": "[4]; 30 min", "result": 1.22, "unit": "% Injected dose"}, {"measurement": "biodistribution tail", "setting": "[4]; 30 min", "result": 1.51, "unit": "% Injected dose"}, {"measurement": "biodistribution urine", "setting": "[4]; 30 min", "result": 1.33, "unit": "% Injected dose"}, {"measurement": "clearance from the kidneys, blood and urine", "setting": "[4]; [6]", "result": "clears from the kidneys, blood and urine over the 30 minute period"}, {"measurement": "uptake in the liver", "setting": "[4]; [6]", "result": "active uptake of the complex in the liver"}, {"measurement": "rate of complexation", "setting": "[5]; all pHs (pH 3.0-10.0)", "result": "complete within the first minute"}, {"measurement": "complexation maintained for upto", "setting": "[5]; pH 3.0-10.0", "result": "≤ 2", "unit": "h"}]}]}
